Measurements published in patent US10894784B2, “Heteroarylbenzimidazole compounds” (BAYER PHARMA AKTIENGESELLSCHAFT, priority 2015, dated 2021).
pIC50: −log10 of the molar value.

Target: TBK1 (Homo sapiens (Human), UniProt Q9UHD2)
Experiment: TBK1 low ATP kinase assay (in vitro assay 1)
Format: biochemical
Conditions: in vitro assay 1, read-out: TBK1 low ATP kinase assay IC50

TBK1, sequence (Q9UHD2 whole entry): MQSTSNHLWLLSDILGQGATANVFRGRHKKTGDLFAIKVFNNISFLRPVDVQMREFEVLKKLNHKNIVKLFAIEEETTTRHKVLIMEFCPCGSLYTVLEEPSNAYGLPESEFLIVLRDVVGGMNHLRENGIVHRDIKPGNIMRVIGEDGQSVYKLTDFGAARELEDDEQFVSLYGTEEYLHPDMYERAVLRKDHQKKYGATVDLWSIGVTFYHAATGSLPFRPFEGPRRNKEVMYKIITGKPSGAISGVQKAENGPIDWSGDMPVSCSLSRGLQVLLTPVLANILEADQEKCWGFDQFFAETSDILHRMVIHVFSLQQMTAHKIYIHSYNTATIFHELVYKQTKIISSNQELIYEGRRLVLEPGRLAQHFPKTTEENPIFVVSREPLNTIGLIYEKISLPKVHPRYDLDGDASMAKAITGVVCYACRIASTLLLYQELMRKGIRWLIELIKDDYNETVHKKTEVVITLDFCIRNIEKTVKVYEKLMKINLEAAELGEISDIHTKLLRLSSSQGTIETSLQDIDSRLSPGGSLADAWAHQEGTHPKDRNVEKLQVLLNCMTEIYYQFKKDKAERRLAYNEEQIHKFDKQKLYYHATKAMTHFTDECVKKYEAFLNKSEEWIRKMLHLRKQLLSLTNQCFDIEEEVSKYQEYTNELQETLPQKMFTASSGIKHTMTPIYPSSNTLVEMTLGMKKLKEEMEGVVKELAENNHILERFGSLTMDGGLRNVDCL

Structure (SMILES) | pIC50
C=CCC(=O)N1CCN(Cc2ccnc(Nc3nc4ccc(-c5nc(C6CC6)no5)cc4[nH]3)c2)CC1 [Example 17.04, 1-{4-[(2-{[6-(3-cyclopropyl-1,2,4-oxadiazol-5-yl)-1H-benzimidazol-2-yl]amino}pyridin-4-yl)methyl]piperazin-1-yl}but-3-en-1-one] | 6.99
Cn1cc(-c2ccc3nc(Nc4cc(CN5CCN(C(=O)CC(F)(F)F)CC5)ccn4)[nH]c3c2)cn1 [Example 37.01, 3,3,3-trifluoro-1-{4-[(2-{[6-(1-methyl-1H-pyrazol-4-yl)-1H-benzimidazol-2-yl]amino}pyridin-4-yl)methyl]piperazin-1-yl}propan-1-one] | 7.26
CCOc1nccc(-c2ccc3nc(Nc4cc(CN5CCN(C(=O)CC6CC6)CC5)ccn4)[nH]c3c2)n1 [Example 26.01.05, 2-cyclopropyl-1-{4-[(2-{[6-(2-ethoxypyrimidin-4-yl)-1H-benzimidazol-2-yl]amino}pyridin-4-yl)methyl]piperazin-1-yl}ethanone] | 7.85
COc1cnccc1-c1ccc2nc(Nc3cc(CN4CCN(C(=O)CC(F)(F)F)CC4)ccn3)[nH]c2c1 [Example 04.02, 3,3,3-trifluoro-1-{4-[(2-{[6-(3-methoxypyridin-4-yl)-1H-benzimidazol-2-yl]amino}pyridin-4-yl)methyl]piperazin-1-yl}propan-1-one] | 7.79
COc1nnc(Cl)cc1-c1ccc2nc(Nc3cc(CN4CCN(C(=O)C5CC5)CC4)ccn3)[nH]c2c1 [Example 46.02, {4-[(2-{[6-(6-chloro-3-methoxypyridazin-4-yl)-1H-benzimidazol-2-yl]amino}pyridin-4-yl)methyl]piperazin-1-yl}(cyclopropyl)methanone] | 7.14
CCOc1c(-c2ccncc2OC)ccc2nc(Nc3cc(CN4CCN(C(=O)CC(F)(F)F)CC4)ccn3)[nH]c12 [Example 51.01, 1-{4-[(2-{[7-ethoxy-6-(3-methoxypyridin-4-yl)-1H-benzimidazol-2-yl]amino}pyridin-4-yl)methyl]piperazin-1-yl}-3,3,3-trifluoropropan-1-one] | 6.83
CC(c1ccnc(Nc2nc3ccc(-c4cc(C(F)(F)F)ncn4)cc3[nH]2)c1)N1CCN(C(=O)CC(F)(F)F)CC1 (single isomer, unassigned) [Example 29.02.01.B, 3,3,3-trifluoro-1-(4-{(1S or 1R)-1-[2-({6-[6-(trifluoromethyl)pyrimidin-4-yl]-1H-benzimidazol-2-yl}amino)pyridin-4-yl]ethyl}piperazin-1-yl)propan-1-one] | 8.06
Cc1nnc(-c2ccc3nc(Nc4cc(CN5CCN(C(=O)C6CC6)CC5)ccn4)[nH]c3c2)o1 [Example 66.01.02, cyclopropyl{4-[(2-{[6-(5-methyl-1,3,4-oxadiazol-2-yl)-1H-benzimidazol-2-yl]amino}pyridin-4-yl)methyl]piperazin-1-yl}methanone] | 7.48
COc1cc(-c2ccc3nc(Nc4cc(C(C)N5CCN(C(=O)C6CC6)CC5)ccn4)[nH]c3c2)ncn1 (single isomer, unassigned) [Example 34.03.02.B, cyclopropyl{4-[(1S or 1R)-1-(2-{[6-(6-methoxypyrimidin-4-yl)-1H-benzimidazol-2-yl]amino}pyridin-4-yl)ethyl]piperazin-1-yl}methanone] | 8.14
O=C(CC1CC1)N1CCN(Cc2ccnc(Nc3nc4ccc(-c5ccnc(C(F)(F)F)n5)cc4[nH]3)c2)CC1 [Example 27.03, 2-cyclopropyl-1-(4-{[2-({6-[2-(trifluoromethyl)pyrimidin-4-yl]-1H-benzimidazol-2-yl}amino)pyridin-4-yl]methyl}piperazin-1-yl)ethanone] | 6.69
Cc1cc(-c2ccc3nc(Nc4cc(CN5CCN(C(=O)CC(F)(F)F)CC5)ccn4)[nH]c3c2)nc(C)n1 [Example 31.01, 1-{4-[(2-{[6-(2,6-dimethylpyrimidin-4-yl)-1H-benzimidazol-2-yl]amino}pyridin-4-yl)methyl]piperazin-1-yl}-3,3,3-trifluoropropan-1-one] | 7.06
Cc1cc(-c2ccc3nc(Nc4cc(CN5CCN(C(=O)C6CC6)CC5)ccn4)[nH]c3c2)ccn1 [Example 01.02, cyclopropyl{4-[(2-{[6-(2-methylpyridin-4-yl)-1H-benzimidazol-2-yl]amino}pyridin-4-yl)methyl]piperazin-1-yl}methanone] | 7.38
COc1cnccc1-c1ccc2nc(Nc3cc(CN4CCN(C(=O)C5CC5)CC4)ccn3)[nH]c2c1 [Example 04.03, cyclopropyl{4-[(2-{[6-(3-methoxypyridin-4-yl)-1H-benzimidazol-2-yl]amino}pyridin-4-yl)methyl]piperazin-1-yl}methanone] | 7.71
COc1c(Cl)ncnc1-c1ccc2nc(Nc3cc(CN4CCN(C(=O)OC(C)(C)C)CC4)ccn3)[nH]c2c1 [Compound 60.01, tert-butyl 4-[(2-{[6-(6-chloro-5-methoxypyrimidin-4-yl)-1H-benzimidazol-2-yl]amino}pyridin-4-yl)methyl]piperazine-1-carboxylate] | 6.96
Cc1cc(-c2ccc3nc(Nc4cc(CN5CCN(C(=O)CC6CC6)CC5)ccn4)[nH]c3c2)ncn1 [Example 30.01.03, 2-cyclopropyl-1-{4-[(2-{[6-(6-methylpyrimidin-4-yl)-1H-benzimidazol-2-yl]amino}pyridin-4-yl)methyl]piperazin-1-yl}ethanone] | 7.77
CC(c1ccnc(Nc2nc3ccc(-c4cc(C(F)(F)F)ncn4)cc3[nH]2)c1)N1CCN(C(=O)CC(F)(F)F)CC1 (single isomer, unassigned) [Example 29.02.01.A, 3,3,3-trifluoro-1-(4-{(1R or 1S)-1-[2-({6-[6-(trifluoromethyl)pyrimidin-4-yl]-1H-benzimidazol-2-yl}amino)pyridin-4-yl]ethyl}piperazin-1-yl)propan-1-one] | 7.03
COc1cncnc1-c1ccc2nc(Nc3cc(CN4CCN(S(=O)(=O)N5CCC(OC)CC5)CC4)ccn3)[nH]c2c1 [Example 35.01.17, N-[4-({4-[(4-methoxypiperidin-1-yl)sulfonyl]piperazin-1-yl}methyl)pyridin-2-yl]-6-(5-methoxypyrimidin-4-yl)-1H-benzimidazol-2-amine] | 7.41

Further lines, results first:

pIC50 | Structure (SMILES)
6.11 | Cc1noc(-c2ccc3nc(Nc4cc(CN5CCN(c6ncccn6)CC5)ccn4)[nH]c3c2)n1 [Example 101.05, 6-(3-methyl-1,2,4-oxadiazol-5-yl)-N-(4-{[4-(pyrimidin-2-yl)piperazin-1-yl]methyl}pyridin-2-yl)-1H-benzimidazol-2-amine]
7.00 | O=C(CC(F)(F)F)N1CCN(Cc2ccnc(Nc3nc4ccc(-c5ccn[nH]5)cc4[nH]3)c2)CC1 [Example 124.02, 3,3,3-trifluoro-1-{4-[(2-{[6-(1H-pyrazol-5-yl)-1H-benzimidazol-2-yl]amino}pyridin-4-yl)methyl]piperazin-1-yl}propan-1-one]
9.32 | O=C(CC(F)(F)F)N1CCN(Cc2ccnc(Nc3nc4ccc(-c5cc(NC6CCC6)ncn5)cc4[nH]3)c2)CC1 [Example 152.02, 1-(4-{[2-({6-[6-(cyclobutylamino)pyrimidin-4-yl]-1H-benzimidazol-2-yl}amino)pyridin-4-yl]methyl}piperazin-1-yl)-3,3,3-trifluoropropan-1-one]
6.96 | O=C(CC(F)(F)F)N1CCN(Cc2ccnc(Nc3nc4ccc(-c5ncnc6c5COC6)cc4[nH]3)c2)CC1 [Example 182.02, 1-{4-[(2-{[6-(5,7-dihydrofuro[3,4-d]pyrimidin-4-yl)-1H-benzimidazol-2-yl]amino}pyridin-4-yl)methyl]piperazin-1-yl}-3,3,3-trifluoropropan-1-one]
5.68 | Cc1c(-c2ccc3nc(Nc4cc(CN5CCN(C(=O)CC(F)(F)F)CC5)ccn4)[nH]c3c2)ncnc1C(F)(F)F [Example 183.02, 3,3,3-trifluoro-1-(4-{[2-({6-[5-methyl-6-(trifluoromethyl)pyrimidin-4-yl]-1H-benzimidazol-2-yl}amino)pyridin-4-yl]methyl}piperazin-1-yl)propan-1-one]
6.49 | Cc1cc(-c2ccc3nc(Nc4cc(C(C)N5CCN(C(=O)C6CC6)CC5)ccn4)[nH]c3c2)n(C)n1 (single isomer, unassigned) [Example 89.03, cyclopropyl{4-[(1R or 1S)-1-(2-{[6-(1,3-dimethyl-1H-pyrazol-5-yl)-1H-benzimidazol-2-yl]amino}pyridin-4-yl)ethyl]piperazin-1-yl}methanone]
6.55 | CC(C)(C)OC(=O)N1CCN(Cc2ccnc(Nc3nc4ccc(-c5ccncc5C#N)cc4[nH]3)c2)CC1 [Example 133.01, tert-butyl 4-[(2-{[6-(3-cyanopyridin-4-yl)-1H-benzimidazol-2-yl]amino}pyridin-4-yl)methyl]piperazine-1-carboxylate]
7.70 | O=C(C1CC1)N1CCN(Cc2ccnc(Nc3nc4ccc(-c5ccnc(F)c5)cc4[nH]3)c2)CC1 [Example 137.03, cyclopropyl{4-[(2-{[6-(2-fluoropyridin-4-yl)-1H-benzimidazol-2-yl]amino}pyridin-4-yl)methyl]piperazin-1-yl}methanone]
8.44 | CC(C)(C)OC(=O)N1CCN(Cc2ccnc(Nc3nc4ccc(-c5cc(NC6CC6)ncn5)cc4[nH]3)c2)CC1 [Example 82.01, tert-butyl 4-{[2-({6-[6-(cyclopropylamino)pyrimidin-4-yl]-1H-benzimidazol-2-yl}amino)pyridin-4-yl]methyl}piperazine-1-carboxylate]
6.05 | Cc1nccc(-c2ccc3nc(Nc4cc(CN5CCN(C(=O)OC(C)(C)C)CC5)ccn4)[nH]c3c2)c1Cl [Example 130.01, tert-butyl 4-[(2-{[6-(3-chloro-2-methylpyridin-4-yl)-1H-benzimidazol-2-yl]amino}pyridin-4-yl)methyl]piperazine-1-carboxylate]
7.47 | CC(c1ccnc(Nc2nc3ccc(-c4cc(OCC(F)(F)C(F)(F)F)ncn4)cc3[nH]2)c1)N1CCN(C(=O)[C@@H]2CC2(F)F)CC1 (single isomer, unassigned) [Example 166.05, ((1RS)-2,2-difluorocyclopropyl)(4-{(1R or 1S)-1-[2-({6-[6-(2,2,3,3,3-pentafluoropropoxy)pyrimidin-4-yl]-1H-benzimidazol-2-yl}amino)pyridin-4-yl]ethyl}piperazin-1-yl)methanone]
